Results taken from US20020051978A1, “Methods and compositions for the identification, assessment, prevention and therapy of human cancers” (priority 2000, published 2002).
Like-named read-outs stand apart in the source and are kept apart here.

Key:
[1] = tested on: 60 cancer cell lines (NCI 60 cancer cell line series); conditions: cited from earlier work
[2] = tested on: 60 cancer cell lines (NCI 60 cancer cell line series); experiment: NCI-DTP in vitro cancer screen, sulforhodamine B (SRB) growth inhibition, 48 hour exposure; format: cell-based, human; design: key to sensitivity class Ovarian OVCAR-8 CL6005 / sensitivity class Ovarian SK-OV-3 CL6011 / sensitivity class Prostate DU-145 CL11003 / sensitivity class NSCLC NCI-H522 CL1003 / sensitivity class Ovarian IGROV1 CL6010 / sensitivity class Ovarian OVCAR-4 CL6002 / sensitivity class Prostate PC-3(I) CL11001 / sensitivity class Renal A498 CL9013 / sensitivity class Renal SN12C CL9008: sensitivity class: 1 = Low, 2 = Medium, 3 = High
Procedure, shortened: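 Sixty NCI-DTP cancer lines plated at line-specific densities, dosed on day 1 in duplicate with 5 concentrations at ten-fold intervals. After 48 h exposure, cell mass read by SRB staining; GI50 (50% growth inhibition) taken from dose-response curves and expressed as -log GI50.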

## COc1cc([C@@H]2c3cc4c(cc3[C@@H](O[C@@H]3O[C@@H]5CO[C@@H](c6cccs6)O[C@H]5[C@H](O)[C@H]3O)[C@H]3COC(=O)[C@H]23)OCO4)cc(OC)c1O [Teniposide]
[1]; Breast BT-549 (CL5013)
  -Log (GI50): 6.2
[1]; Breast HS-578T CL5006
  -Log (GI50): 6.4
[1]; Breast MCF7(I) (CL5001)
  -Log (GI50): 7.4
[1]; Breast MCF7/ADRr (CL5002)
  -Log (GI50): 4.6
[1]; Breast MDA-MB-231 CL5005
  -Log (GI50): 6.0
[1]; Breast MDA-MB-435 (CL5011)
  -Log (GI50): 5.9
[1]; Breast MDA-N CL5012
  -Log (GI50): 6.0
[1]; Breast T-47D (CL5014)
  -Log (GI50): 6.8
[1]; CNS SF-268 CL12014
  -Log (GI50): 6.3
[1]; CNS SF-295 CL12015
  -Log (GI50): 6.8
[1]; CNS SF-539 CL12016
  -Log (GI50): 6.7
[1]; CNS SNB-19 (CL12002)
  -Log (GI50): 6.5
[1]; CNS SNB-75(I) CL12005
  -Log (GI50): 6.3
[1]; CNS U251(I) CL12009
  -Log (GI50): 6.8
[1]; Colon COLO-250 CL4010
  -Log (GI50): 6.3
[1]; Colon HCC-2998 (CL4002)
  -Log (GI50): 6.2
[1]; Colon HCT-15 CL4015
  -Log (GI50): 5.8
[1]; Colon HCT-116 (CL4003)
  -Log (GI50): 6.1
[1]; Colon HT29(I) CL4001
  -Log (GI50): 5.8
[1]; Colon KM12 (CL4017)
  -Log (GI50): 6.1
[1]; Colon SW-620 (CL4009)
  -Log (GI50): 6.6
[1]; Leukemia CCRF-CEM(I) (CL7003)
  -Log (GI50): 7.3
[1]; Leukemia HL-60(I) (CL7008)
  -Log (GI50): 7.3
[1]; Leukemia K562(I) CL7005
  -Log (GI50): 6.1
[1]; Leukemia MOLT-4 (CL7006)
  -Log (GI50): 7.8
[1]; Leukemia RPMI-8226(I) (CL7010)
  -Log (GI50): 6.8
[1]; Leukemia SR CL7019
  -Log (GI50): 7.9
[1]; Melanoma LOX IMVI CL10001
  -Log (GI50): 6.7
[1]; Melanoma M14 (CL10014)
  -Log (GI50): 6.2
[1]; Melanoma MALME-3M CL10002
  -Log (GI50): 6.2
[1]; NCSLC NCI-H522 CL1003
  -Log (GI50): 6.3
[1]; NSCLC NCI-H23(I) CL1001
  -Log (GI50): 6.4
[1]; NSCLC NCI-H332M CL1017
  -Log (GI50): 5.5
[1]; NSCLC NCI-H460 CL1021
  -Log (GI50): 7.8
[1]; Ovarian IGROV1 CL6010
  -Log (GI50): 5.8
[1]; Ovarian OVCAR-3 CL6001
  -Log (GI50): 5.8
[1]; Ovarian OVCAR-4 CL6002
  -Log (GI50): 5.3
[1]; Ovarian OVCAR-5 CL6003
  -Log (GI50): 5.8
[1]; Ovarian OVCAR-8 CL6005
  -Log (GI50): 6.3
[1]; Ovarian SK-OV-3 CL6011
  -Log (GI50): 6.4
[1]; Prostate DU-145 CL11003
  -Log (GI50): 6.5
[1]; Prostate PC-3(I) CL11001
  -Log (GI50): 6.0
[1]; Renal 786-O CL9018
  -Log (GI50): 6.5
[1]; Renal A498 CL9013
  -Log (GI50): 6.4
[1]; Renal ACHN CL9023
  -Log (GI50): 6.8
[1]; Renal CAKI-1 CL9015
  -Log (GI50): 7.1
[1]; Renal RXF-393 CL9016
  -Log (GI50): 6.3
[1]; Renal SN12C CL9008
  -Log (GI50): 6.5
[1]; Renal TK10 CL9024
  -Log (GI50): 5.8
[1]; Renal UO-31 CL9004
  -Log (GI50): 5.4
[2]; Breast BT-549 (CL5013)
  classification of cell line as Low(1), Medium(2) or High(3) sensitivity to compound: 2
[2]; Breast HS-578T CL5006
  classification of cell line as Low(1), Medium(2) or High(3) sensitivity to compound: 2
[2]; Breast MCF7(I) (CL5001)
  classification of cell line as Low(1), Medium(2) or High(3) sensitivity to compound: 3
[2]; Breast MCF7/ADRr (CL5002)
  classification of cell line as Low(1), Medium(2) or High(3) sensitivity to compound: 1
[2]; Breast MDA-MB-231 CL5005
  classification of cell line as Low(1), Medium(2) or High(3) sensitivity to compound: 2
[2]; Breast MDA-MB-435 (CL5011)
  classification of cell line as Low(1), Medium(2) or High(3) sensitivity to compound: 2
[2]; Breast MDA-N CL5012
  classification of cell line as Low(1), Medium(2) or High(3) sensitivity to compound: 2
[2]; Breast T-47D (CL5014)
  classification of cell line as Low(1), Medium(2) or High(3) sensitivity to compound: 2
[2]; CNS SF-268 CL12014
  classification of cell line as Low(1), Medium(2) or High(3) sensitivity to compound: 2
[2]; CNS SF-295 CL12015
  classification of cell line as Low(1), Medium(2) or High(3) sensitivity to compound: 2
[2]; CNS SF-539 CL12016
  classification of cell line as Low(1), Medium(2) or High(3) sensitivity to compound: 2
[2]; CNS SNB-19 (CL12002)
  classification of cell line as Low(1), Medium(2) or High(3) sensitivity to compound: 2
[2]; CNS SNB-75(I) CL12005
  classification of cell line as Low(1), Medium(2) or High(3) sensitivity to compound: 2
[2]; CNS U251(I) CL12009
  classification of cell line as Low(1), Medium(2) or High(3) sensitivity to compound: 2
[2]; Colon COLO-250 CL4010
  classification of cell line as Low(1), Medium(2) or High(3) sensitivity to compound: 2
[2]; Colon HCC-2998 (CL4002)
  classification of cell line as Low(1), Medium(2) or High(3) sensitivity to compound: 2
[2]; Colon HCT-15 CL4015
  classification of cell line as Low(1), Medium(2) or High(3) sensitivity to compound: 2
[2]; Colon HCT-116 (CL4003)
  classification of cell line as Low(1), Medium(2) or High(3) sensitivity to compound: 2
[2]; Colon HT29(I) CL4001
  classification of cell line as Low(1), Medium(2) or High(3) sensitivity to compound: 2
[2]; Colon KM12 (CL4017)
  classification of cell line as Low(1), Medium(2) or High(3) sensitivity to compound: 2
[2]; Colon SW-620 (CL4009)
  classification of cell line as Low(1), Medium(2) or High(3) sensitivity to compound: 2
[2]; Leukemia CCRF-CEM(I) (CL7003)
  classification of cell line as Low(1), Medium(2) or High(3) sensitivity to compound: 3
[2]; Leukemia HL-60(I) (CL7008)
  classification of cell line as Low(1), Medium(2) or High(3) sensitivity to compound: 3
[2]; Leukemia K562(I) CL7005
  classification of cell line as Low(1), Medium(2) or High(3) sensitivity to compound: 2
[2]; Leukemia MOLT-4 (CL7006)
  classification of cell line as Low(1), Medium(2) or High(3) sensitivity to compound: 3
[2]; Leukemia RPMI-8226(I) (CL7010)
  classification of cell line as Low(1), Medium(2) or High(3) sensitivity to compound: 2
[2]; Leukemia SR CL7019
  classification of cell line as Low(1), Medium(2) or High(3) sensitivity to compound: 3
[2]; Melanoma LOX IMVI CL10001
  classification of cell line as Low(1), Medium(2) or High(3) sensitivity to compound: 2
[2]; Melanoma M14 (CL10014)
  classification of cell line as Low(1), Medium(2) or High(3) sensitivity to compound: 2
[2]; Melanoma MALME-3M CL10002
  classification of cell line as Low(1), Medium(2) or High(3) sensitivity to compound: 2
[2]; cell line NSCLC NCI-H23(I), CL1001
  sensitivity class NSCLC NCI-H23(I) CL1001: 2
[2]; cell line NSCLC NCI-H332M, CL1017
  sensitivity class NSCLC NCI-H332M CL1017: 1
[2]; cell line NSCLC NCI-H460, CL1021
  sensitivity class NSCLC NCI-H460 CL1021: 3
[2]; cell line NSCLC NCI-H522, CL1003
  sensitivity class NSCLC NCI-H522 CL1003: 2
[2]; cell line Ovarian IGROV1, CL6010
  sensitivity class Ovarian IGROV1 CL6010: 2
[2]; cell line Ovarian OVCAR-3, CL6001
  sensitivity class Ovarian OVCAR-3 CL6001: 2
[2]; cell line Ovarian OVCAR-4, CL6002
  sensitivity class Ovarian OVCAR-4 CL6002: 1
[2]; cell line Ovarian OVCAR-5, CL6003
  sensitivity class Ovarian OVCAR-5 CL6003: 2
[2]; cell line Ovarian OVCAR-8, CL6005
  sensitivity class Ovarian OVCAR-8 CL6005: 2
[2]; cell line Ovarian SK-OV-3, CL6011
  sensitivity class Ovarian SK-OV-3 CL6011: 2
[2]; cell line Prostate DU-145, CL11003
  sensitivity class Prostate DU-145 CL11003: 2
[2]; cell line Prostate PC-3(I), CL11001
  sensitivity class Prostate PC-3(I) CL11001: 2
[2]; cell line Renal 786-O, CL9018
  sensitivity class Renal 786-O CL9018: 2
[2]; cell line Renal A498, CL9013
  sensitivity class Renal A498 CL9013: 2
[2]; cell line Renal ACHN, CL9023
  sensitivity class Renal ACHN CL9023: 2
[2]; cell line Renal CAKI-1, CL9015
  sensitivity class Renal CAKI-1 CL9015: 3
[2]; cell line Renal RXF-393, CL9016
  sensitivity class Renal RXF-393 CL9016: 2
[2]; cell line Renal SN12C, CL9008
  sensitivity class Renal SN12C CL9008: 2
[2]; cell line Renal TK10, CL9024
  sensitivity class Renal TK10 CL9024: 2
[2]; cell line Renal UO-31, CL9004
  sensitivity class Renal UO-31 CL9004: 1
